Each compound was assayed against T1, αllbβ3 integrin (Homo sapiens, UniProt P05106+P08514) (assay: ELISA: inhibition of binding of αllbβ3 integrin membrane preparation to coated extracellular matrix protein). Conditions: substrate fibrinogen, human platelet membrane preparation.
T1 construct: Human platelet membrane preparations were used as a source of αllbβ3 integrin; from tissue; host or cells: human platelets (membrane preparation)
Protocol: (§1) An ELISA assay based on the published method of Bethert et al., 2000, J Biol Chem 275, 33308-23, was employed.
(§2) Briefly, appropriate microtitre plates were coated with either Fibrinogen or Vitronectin (10 μg/well). These extracellular matrix proteins contain the RGD amino acid sequence that is recognized by αllbβ3 integrin. Human platelet membrane preparations were used as a source of αllbβ3 integrin and the cell line WM-115 was used as a source of αVβ3 integrin. Inhibition of the binding of αllbβ3 integrin containing membrane preparations to the extracellular matrix protein was determined by pre-incubating the platelet membrane preparation with test or control compounds. The binding of the αllbβ3 integrin containing membrane was the quantitated by using a rabbit anti-integrinβ3 antibody, a horse radish peroxidase coupled second antibody and a standard colorimetric detection system.

T1 sequence (P08514 32-887 limits assumed): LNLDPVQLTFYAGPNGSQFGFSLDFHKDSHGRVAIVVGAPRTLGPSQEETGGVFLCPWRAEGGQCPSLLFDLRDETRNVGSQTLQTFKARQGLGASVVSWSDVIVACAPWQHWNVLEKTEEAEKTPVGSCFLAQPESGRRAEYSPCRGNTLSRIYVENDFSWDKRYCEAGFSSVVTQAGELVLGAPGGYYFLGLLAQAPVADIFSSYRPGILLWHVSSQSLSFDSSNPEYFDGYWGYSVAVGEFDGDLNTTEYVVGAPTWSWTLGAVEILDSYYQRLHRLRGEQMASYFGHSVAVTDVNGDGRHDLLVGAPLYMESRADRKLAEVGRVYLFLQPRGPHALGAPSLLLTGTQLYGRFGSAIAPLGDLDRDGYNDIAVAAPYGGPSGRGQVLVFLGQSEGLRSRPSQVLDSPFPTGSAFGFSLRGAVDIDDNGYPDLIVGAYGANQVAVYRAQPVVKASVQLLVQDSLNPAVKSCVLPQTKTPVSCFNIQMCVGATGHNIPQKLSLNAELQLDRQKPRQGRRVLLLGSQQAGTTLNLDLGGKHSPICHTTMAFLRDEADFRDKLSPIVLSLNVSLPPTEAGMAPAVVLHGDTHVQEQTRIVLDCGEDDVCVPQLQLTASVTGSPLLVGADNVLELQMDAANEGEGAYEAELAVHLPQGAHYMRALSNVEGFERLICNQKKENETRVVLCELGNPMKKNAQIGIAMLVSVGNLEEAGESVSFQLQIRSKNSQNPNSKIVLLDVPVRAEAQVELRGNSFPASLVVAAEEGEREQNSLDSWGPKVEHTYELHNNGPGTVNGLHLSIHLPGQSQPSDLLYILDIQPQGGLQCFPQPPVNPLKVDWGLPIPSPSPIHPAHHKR
T1 sequence (P08514 891-1039 partner limits assumed): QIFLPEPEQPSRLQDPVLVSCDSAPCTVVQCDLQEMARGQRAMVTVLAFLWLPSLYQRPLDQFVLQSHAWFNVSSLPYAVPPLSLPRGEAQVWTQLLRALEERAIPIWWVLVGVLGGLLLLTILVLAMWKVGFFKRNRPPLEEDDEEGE
T1 sequence (P05106 27-788): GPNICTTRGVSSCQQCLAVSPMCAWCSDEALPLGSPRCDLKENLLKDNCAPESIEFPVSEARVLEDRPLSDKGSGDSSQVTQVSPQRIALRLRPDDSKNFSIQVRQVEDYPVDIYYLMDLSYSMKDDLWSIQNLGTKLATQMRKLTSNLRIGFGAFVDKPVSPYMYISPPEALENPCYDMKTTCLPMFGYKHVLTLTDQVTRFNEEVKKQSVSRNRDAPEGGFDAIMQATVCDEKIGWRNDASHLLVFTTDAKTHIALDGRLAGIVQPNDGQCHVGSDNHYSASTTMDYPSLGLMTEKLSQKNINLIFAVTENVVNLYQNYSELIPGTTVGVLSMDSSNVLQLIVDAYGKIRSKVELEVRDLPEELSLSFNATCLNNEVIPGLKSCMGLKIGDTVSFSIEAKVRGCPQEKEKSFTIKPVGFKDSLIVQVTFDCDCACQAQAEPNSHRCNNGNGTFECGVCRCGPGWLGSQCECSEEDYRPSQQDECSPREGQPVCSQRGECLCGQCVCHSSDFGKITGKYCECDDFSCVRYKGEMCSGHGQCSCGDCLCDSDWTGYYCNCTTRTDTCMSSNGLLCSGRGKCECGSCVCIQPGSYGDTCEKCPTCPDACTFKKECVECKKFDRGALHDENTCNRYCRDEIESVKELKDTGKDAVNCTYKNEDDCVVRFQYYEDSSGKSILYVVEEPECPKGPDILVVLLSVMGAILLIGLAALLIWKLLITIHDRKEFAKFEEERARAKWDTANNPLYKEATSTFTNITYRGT

| SMILES | INHIBITION @ 250 uM RECEPTOR allBb3 SUBSTRATE FIBRINOGEN |
| --- | --- |
| CCOC1O[C@H](COCc2cccc(N)c2)[C@@H](O)[C@H](OCC(=O)O)[C@H]1NC(=O)c1ccccc1 (single isomer, unassigned) [Compound 55] | + (36% to 60% inhibition at 250 micromolar) |
| CCOC1O[C@H](COCc2ccccc2)[C@@H](O)[C@H](OCc2ccc(C(=O)O)cc2)[C@H]1NC(=O)CCNC(=N)N (single isomer, unassigned) [Compound 57] | − (0% to 35% inhibition at 250 micromolar) |
| CCOC1O[C@H](COCc2ccccc2)[C@@H](O)[C@H](OCc2ccc(C(=O)O)cc2)[C@H]1NC(=O)CCNC(=N)N (single isomer, unassigned) [Compound 58] | + (36% to 60% inhibition at 250 micromolar) |
| N=C(N)NCCC(=O)N[C@H]1C(O)O[C@H](COCc2ccccc2)[C@@H](O)[C@@H]1OCc1ccc(C(=O)O)cc1 (single isomer, unassigned) [Compound 59] | + (36% to 60% inhibition at 250 micromolar) |
| CCOC1O[C@H](COCc2ccc(Br)cc2)[C@@H](O)[C@H](OCc2ccc(C(=O)O)cc2)[C@H]1NC(=O)CCNC(=N)N (single isomer, unassigned) [Compound 60] | + (36% to 60% inhibition at 250 micromolar) |
| CCOC1O[C@H](COCc2ccc(Br)cc2)[C@@H](O)[C@H](OCc2ccc(C(=O)O)cc2)[C@H]1NC(=O)CCNC(=N)N (single isomer, unassigned) [Compound 61] | − (0% to 35% inhibition at 250 micromolar) |
| N=C(N)NCCC(=O)N[C@H]1C(O)O[C@H](COCc2ccc(Br)cc2)[C@@H](O)[C@@H]1OCc1ccc(C(=O)O)cc1 (single isomer, unassigned) [Compound 63] | ++ (61% to 80% inhibition at 250 micromolar) |
| CCOC1OC(COCc2cccc(N)c2)C(O)C(OCc2ccc(C(=O)O)cc2)C1NC(=O)c1ccc(Cl)cc1 (single isomer, unassigned) [Compound 64] | − (0% to 35% inhibition at 250 micromolar) |
| Nc1cccc(COCC2OC(O)C(NC(=O)c3ccc(Cl)cc3)C(OCc3ccc(C(=O)O)cc3)C2O)c1 (single isomer, unassigned) [Compound 66] | + (36% to 60% inhibition at 250 micromolar) |
| Nc1cccc(COCC2OC(O)C(NC(=O)c3ccc(Cl)cc3)C(OCc3ccc(C(=O)O)cc3)C2O)c1 (single isomer, unassigned) [Compound 67] | + (36% to 60% inhibition at 250 micromolar) |
| CCOC1OC(COCc2ccccc2)C(O)C(OCc2cccc(N)c2)C1NC(=O)c1ccc(C(=O)O)cc1 (single isomer, unassigned) [Compound 68] | − (0% to 35% inhibition at 250 micromolar) |

Same assay, conditions: substrate vitronectin, human platelet membrane preparation

| SMILES | INHIBITION 250 uM RECEPTOR allBb3 SUBSTRATE VITRONECTIN |
| --- | --- |
| CCOC1O[C@H](COCc2cccc(N)c2)[C@@H](O)[C@H](OCC(=O)O)[C@H]1NC(=O)c1ccccc1 (single isomer, unassigned) [Compound 55] | +++ (81% to 100% inhibition at 250 micromolar) |
| CCOC1O[C@H](COCc2ccccc2)[C@@H](O)[C@H](OCc2ccc(C(=O)O)cc2)[C@H]1NC(=O)CCNC(=N)N (single isomer, unassigned) [Compound 57] | +++ (81% to 100% inhibition at 250 micromolar) |
| CCOC1O[C@H](COCc2ccccc2)[C@@H](O)[C@H](OCc2ccc(C(=O)O)cc2)[C@H]1NC(=O)CCNC(=N)N (single isomer, unassigned) [Compound 58] | +++ (81% to 100% inhibition at 250 micromolar) |
| N=C(N)NCCC(=O)N[C@H]1C(O)O[C@H](COCc2ccccc2)[C@@H](O)[C@@H]1OCc1ccc(C(=O)O)cc1 (single isomer, unassigned) [Compound 59] | +++ (81% to 100% inhibition at 250 micromolar) |
| CCOC1O[C@H](COCc2ccc(Br)cc2)[C@@H](O)[C@H](OCc2ccc(C(=O)O)cc2)[C@H]1NC(=O)CCNC(=N)N (single isomer, unassigned) [Compound 60] | +++ (81% to 100% inhibition at 250 micromolar) |
| CCOC1O[C@H](COCc2ccc(Br)cc2)[C@@H](O)[C@H](OCc2ccc(C(=O)O)cc2)[C@H]1NC(=O)CCNC(=N)N (single isomer, unassigned) [Compound 61] | +++ (81% to 100% inhibition at 250 micromolar) |
| N=C(N)NCCC(=O)N[C@H]1C(O)O[C@H](COCc2ccc(Br)cc2)[C@@H](O)[C@@H]1OCc1ccc(C(=O)O)cc1 (single isomer, unassigned) [Compound 63] | +++ (81% to 100% inhibition at 250 micromolar) |
| CCOC1OC(COCc2cccc(N)c2)C(O)C(OCc2ccc(C(=O)O)cc2)C1NC(=O)c1ccc(Cl)cc1 (single isomer, unassigned) [Compound 64] | ++ (61% to 80% inhibition at 250 micromolar) |
| Nc1cccc(COCC2OC(O)C(NC(=O)c3ccc(Cl)cc3)C(OCc3ccc(C(=O)O)cc3)C2O)c1 (single isomer, unassigned) [Compound 66] | +++ (81% to 100% inhibition at 250 micromolar) |
| Nc1cccc(COCC2OC(O)C(NC(=O)c3ccc(Cl)cc3)C(OCc3ccc(C(=O)O)cc3)C2O)c1 (single isomer, unassigned) [Compound 67] | +++ (81% to 100% inhibition at 250 micromolar) |
| CCOC1OC(COCc2ccccc2)C(O)C(OCc2cccc(N)c2)C1NC(=O)c1ccc(C(=O)O)cc1 (single isomer, unassigned) [Compound 68] | ++ (61% to 80% inhibition at 250 micromolar) |

These compounds were tested against T2, αVβ3 integrin (Homo sapiens, UniProt P05106+P06756) (assay: ELISA: inhibition of binding of αVβ3 integrin (source WM-115 cell line) to coated extracellular matrix protein). Conditions: WM-115 cell line as integrin source.
T2 construct: the cell line WM-115 was used as a source of αVβ3 integrin; endogenous in cells; host or cells: WM-115 cell line
Protocol: as §1, §2

T2 sequence (P06756 31-889 limits assumed): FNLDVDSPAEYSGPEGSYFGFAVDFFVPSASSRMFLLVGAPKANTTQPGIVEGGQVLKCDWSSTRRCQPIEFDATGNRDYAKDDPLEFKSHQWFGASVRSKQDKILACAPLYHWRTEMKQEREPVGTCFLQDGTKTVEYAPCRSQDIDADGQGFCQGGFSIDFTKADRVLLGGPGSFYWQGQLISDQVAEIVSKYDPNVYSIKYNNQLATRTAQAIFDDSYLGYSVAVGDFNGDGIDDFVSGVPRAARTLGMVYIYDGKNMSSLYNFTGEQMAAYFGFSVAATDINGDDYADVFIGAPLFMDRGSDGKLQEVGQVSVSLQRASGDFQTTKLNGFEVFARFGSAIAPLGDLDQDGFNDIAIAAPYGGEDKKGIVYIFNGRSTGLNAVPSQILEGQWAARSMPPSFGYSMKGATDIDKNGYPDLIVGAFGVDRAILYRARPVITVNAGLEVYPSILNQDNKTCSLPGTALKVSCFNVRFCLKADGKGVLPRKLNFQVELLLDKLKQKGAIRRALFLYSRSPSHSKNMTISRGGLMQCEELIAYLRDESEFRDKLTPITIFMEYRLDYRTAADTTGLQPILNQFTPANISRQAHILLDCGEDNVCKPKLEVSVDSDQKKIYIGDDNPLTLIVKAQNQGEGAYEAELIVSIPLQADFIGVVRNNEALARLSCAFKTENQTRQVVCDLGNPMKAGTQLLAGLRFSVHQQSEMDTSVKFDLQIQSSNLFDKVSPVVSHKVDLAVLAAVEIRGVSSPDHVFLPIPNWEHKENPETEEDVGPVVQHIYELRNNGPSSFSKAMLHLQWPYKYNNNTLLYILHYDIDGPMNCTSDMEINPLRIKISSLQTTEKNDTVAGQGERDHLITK
T2 sequence (P06756 891-1048 partner limits assumed): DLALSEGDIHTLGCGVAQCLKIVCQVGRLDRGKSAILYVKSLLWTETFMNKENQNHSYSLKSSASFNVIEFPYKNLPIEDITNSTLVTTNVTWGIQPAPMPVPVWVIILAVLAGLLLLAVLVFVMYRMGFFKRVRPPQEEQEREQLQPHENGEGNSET
T2 sequence (P05106 27-788): as the sequence (P05106 27-788) above

| SMILES | INHIBITION 250 uM RECEPTOR aVb3 SUBSTRATE FIBRINOGEN |
| --- | --- |
| CCOC1O[C@H](COCc2cccc(N)c2)[C@@H](O)[C@H](OCC(=O)O)[C@H]1NC(=O)c1ccccc1 (single isomer, unassigned) [Compound 55] | +++ (81% to 100% inhibition at 250 micromolar) |
| CCOC1O[C@H](COCc2ccccc2)[C@@H](O)[C@H](OCc2ccc(C(=O)O)cc2)[C@H]1NC(=O)CCNC(=N)N (single isomer, unassigned) [Compound 57] | +++ (81% to 100% inhibition at 250 micromolar) |
| CCOC1O[C@H](COCc2ccccc2)[C@@H](O)[C@H](OCc2ccc(C(=O)O)cc2)[C@H]1NC(=O)CCNC(=N)N (single isomer, unassigned) [Compound 58] | +++ (81% to 100% inhibition at 250 micromolar) |
| N=C(N)NCCC(=O)N[C@H]1C(O)O[C@H](COCc2ccccc2)[C@@H](O)[C@@H]1OCc1ccc(C(=O)O)cc1 (single isomer, unassigned) [Compound 59] | +++ (81% to 100% inhibition at 250 micromolar) |
| CCOC1O[C@H](COCc2ccc(Br)cc2)[C@@H](O)[C@H](OCc2ccc(C(=O)O)cc2)[C@H]1NC(=O)CCNC(=N)N (single isomer, unassigned) [Compound 60] | +++ (81% to 100% inhibition at 250 micromolar) |
| CCOC1O[C@H](COCc2ccc(Br)cc2)[C@@H](O)[C@H](OCc2ccc(C(=O)O)cc2)[C@H]1NC(=O)CCNC(=N)N (single isomer, unassigned) [Compound 61] | +++ (81% to 100% inhibition at 250 micromolar) |
| N=C(N)NCCC(=O)N[C@H]1C(O)O[C@H](COCc2ccc(Br)cc2)[C@@H](O)[C@@H]1OCc1ccc(C(=O)O)cc1 (single isomer, unassigned) [Compound 63] | − (0% to 35% inhibition at 250 micromolar) |
| CCOC1OC(COCc2cccc(N)c2)C(O)C(OCc2ccc(C(=O)O)cc2)C1NC(=O)c1ccc(Cl)cc1 (single isomer, unassigned) [Compound 64] | + (36% to 60% inhibition at 250 micromolar) |
| Nc1cccc(COCC2OC(O)C(NC(=O)c3ccc(Cl)cc3)C(OCc3ccc(C(=O)O)cc3)C2O)c1 (single isomer, unassigned) [Compound 66] | + (36% to 60% inhibition at 250 micromolar) |
| Nc1cccc(COCC2OC(O)C(NC(=O)c3ccc(Cl)cc3)C(OCc3ccc(C(=O)O)cc3)C2O)c1 (single isomer, unassigned) [Compound 67] | − (0% to 35% inhibition at 250 micromolar) |
| CCOC1OC(COCc2ccccc2)C(O)C(OCc2cccc(N)c2)C1NC(=O)c1ccc(C(=O)O)cc1 (single isomer, unassigned) [Compound 68] | ++ (61% to 80% inhibition at 250 micromolar) |

Reference: patent publication US20080176936A1, “Classes of Compounds that Interact with Integrins” (priority 2005, published 2008)
